We go through 6 molecules from US11492342B2, “Crystalline forms of piperazine-1,4-diylbis((6-(1H-benzo[d]imidazo-2-yl)pyridin-2yl)methanone)” (Landos Biopharma, Inc., priority 2020, dated 2022).

As usually defined, the Cmax is the peak of the concentration-time curve.

Read-outs that look alike come from different tables or passages of the source.

The nature of data set [1]: Pharmacokinetic analysis: oral dosing to mice, BT-11 in plasma and colonic tissue by LC/MS/MS. The note with it: for Colon BT-11 Concentration / Plasma BT-11 Cmax: oral; for Colon BT-11 Concentration: colon 4 hours post-dose. The method, then:
BT-11 Form 0, Form 1, and Form 2 were orally dosed to male and female mice (n=4) to provide 8 mg/kg. Plasma was collected at 1, 2, and 4 hours post-dose. At 4 hours post-dose, colons were excised and washed in PBS. Tissues were then homogenized by Fast-Prep24 instrument. Plasma and tissue homogenate were prepared by acetonitrile-based liquid-liquid extraction. BT-11 concentrations were determined by LC/MS/MS analysis using a linear calibration curve.

Data set [2] in a line: Particle size distribution (PSD) analysis. The class given is physicochemical. On the procedure: Particle size distribution analysis was carried out using a particle size analyzer with a dispersion cell. Approximately 50 mg of sample was weighed into a 20 mL scintillation vial and 10 mL of dispersant was added. The sample was sonicated for 30 seconds, aspirated with a glass pipette, and then added to the dispersion unit. The sample was circulated for 30 seconds to allow the dispersion to stabilize.

Data set [3] is described as follows: Dynamic vapor sorption (DVS). The class given is physicochemical. The note with it: for re-crystallization or form change during the DVS experiment: DVS kinetic plot. The method, then: Approximately, 10 mg of sample was placed into a mesh vapor sorption balance pan and loaded into a DVS-1/DVS Intrinsic/DVS Advantage dynamic vapor sorption balance by Surface Measurement Systems. The sample was subjected to a ramping profile from 40-90% relative humidity (RH) at 10% increments, maintaining the sample at each step until a stable weight had been achieved (dm/dt 0.004%, minimum step length 30 min, maximum step length 500 min) at 25° C. After completion of the sorption cycle, the sample was dried using the same procedure to 0% RH and then a second sorption cycle back to 40% RH. Two cycles were performed. The weight change during the sorption/desorption cycles were plotted, allowing for the hygroscopic nature of the sample to be determined. XRPD analysis was then carried out on any solid retained.

A short description of data set [4]: Solid form change on drying, followed by XRPD. The data set is classed as physicochemical.
Protocol: XRPD analysis was carried out, scanning the samples between 3 and 35° 2θ. The material was gently ground to release any agglomerates and loaded onto a multi-well plate with polymer film to support the sample. The multi-well plate was then placed into the diffractometer and analyzed using Cu K radiation (α1λ=1.54060 Å; α2=1.54443 Å; β=1.39225 Å; α1:α2 ratio=0.5) running in transmission mode (step size 0.0130° 2θ, step time 18.87 s) using 40 kV/40 mA generator settings. Data were visualized and analyzed.
For data set [5], the system named is CD25/STAT5 signaling and late-stage glycolysis. The note with it: human cells; cited from earlier work.
Data set [6] concerns TNFα production in the gastrointestinal tract, fecal calprotectin. Particulars: mice; cited from earlier work.
For data set [7] the following is noted: cited from earlier work.
In data set [8] the test system is CD25/STAT5 signaling and late-stage glycolysis. The note with it: murine cells; cited from earlier work.
Setting [9] is: mice, 8 mg/kg, plasma collected at 1, 2 and 4 hours post-dose.
The mark [10] stands for this setting: DVS, 25° C., listed as BT-11 Form 1.
The mark [11] stands for this setting: DVS, 25° C., listed as BT-11 Form 2.
Setting [12] is: DVS, 25° C., listed as BT-11 Form 3.

`O=C(c1cccc(-c2nc3ccccc3[nH]2)n1)N1CCN(C(=O)c2cccc(-c3nc4ccccc4[nH]3)n2)CC1` [Form 0, piperazine-1,4-diylbis((6-(1H-benzo[d]imidazo-2-yl)pyridine-2-yl)methanone)] came in with a Cmax in data set [1] (both, mouse, plasma, po, 8 mg/kg, Plasma BT-11 Cmax, mice, plasma collected at 1, 2 and 4 hours post-dose) of 186 ng/mL. The molecule also returned a Colon BT-11 Concentration in data set [1] (mice, 8 mg/kg) of 1280 ng/g. In data set [2], this molecule registered a d10 of 0.2 μm, a d50 of 6.3 μm and a d90 of 19.8 μm.

The molecule `Cl.Cl.O=C(c1cccc(-c2nc3ccccc3[nH]2)n1)N1CCN(C(=O)c2cccc(-c3nc4ccccc4[nH]3)n2)CC1` [Form 1, piperazine-1,4-diylbis((6-(1H-benzo[d]imidazo-2-yl)pyridine-2-yl)methanone)] yielded a Colon BT-11 Concentration in data set [1] (mice, 8 mg/kg) of 3000 ng/g. Also, the “Plasma BT-11 Cmax” value in data set [1] (setting [9]) is reported as 177 ng/mL. In addition, the “re-crystallization or form change during the DVS experiment” value in data set [3] (listed as BT-11 Form 1) is “no evidence of re-crystallization or form change”. In data set [3] (setting [10]), the hygroscopic nature entry was “hygroscopic”, the “total mass increase up to 90% RH” value came to 24% and the “total mass lost below 20% RH” value is 6.0%. For the same molecule, in data set [2] (listed as BT-11 Form 1), the d10 is 0.1 μm, the d50 stood at 0.5 μm and the d90 worked out at 40.8 μm.

In data set [1] (mice, 8 mg/kg), `Cl.Cl.O=C(c1cccc(-c2nc3ccccc3[nH]2)n1)N1CCN(C(=O)c2cccc(-c3nc4ccccc4[nH]3)n2)CC1` [Form 2, piperazine-1,4-diylbis((6-(1H-benzo[d]imidazo-2-yl)pyridine-2-yl)methanone)] returned a Colon BT-11 Concentration of 4470 ng/g. Besides, the “Plasma BT-11 Cmax” value in data set [1] (setting [9]) came out at 41 ng/mL. For the same molecule, in data set [1] (mouse, in vivo, po), the “confinement to the gastrointestinal tract after oral administration” value is “increased confinement to the gastrointestinal tract”. Further, the “re-crystallization or form change during the DVS experiment” value in data set [3] (listed as BT-11 Form 2) was “no evidence of re-crystallization or form change”. Further, in data set [3] (DVS, 25° C., 2nd cycle), the “mass uptake on 2nd cycle” value is given as 0.23%. Further, in data set [3] (setting [11]), the hygroscopic nature result is listed as “slightly hygroscopic” and the “total mass increase up to 90% RH” value is on record as 0.32%. In data set [2] (listed as BT-11 Form 2), the d10 came out at 18.2 μm, the d50 stood at 31.9 μm and the d90 came out at 83.9 μm.

`Cl.Cl.O=C(c1cccc(-c2nc3ccccc3[nH]2)n1)N1CCN(C(=O)c2cccc(-c3nc4ccccc4[nH]3)n2)CC1` [Form 3, piperazine-1,4-diylbis((6-(1H-benzo[d]imidazo-2-yl)pyridine-2-yl)methanone)]: the “re-crystallization or form change during the DVS experiment” value in data set [3] (listed as BT-11 Form 3) is “No evidence of re-crystallization or form change”. Further, in data set [3] (DVS, 25° C.), the “total moisture uptake due to surface moisture” value is recorded as 2.8%. Besides, in data set [3] (setting [12]), the “total mass increase up to 90% RH” value was 7.8% and the “total mass lost below 20% RH” value was determined as 5.0%.

As to `Cl.Cl.O=C(c1cccc(-c2nc3ccccc3[nH]2)n1)N1CCN(C(=O)c2cccc(-c3nc4ccccc4[nH]3)n2)CC1` [Form 7, piperazine-1,4-diylbis((6-(1H-benzo[d]imidazo-2-yl)pyridine-2-yl)methanone)], the form change post-drying result in data set [4] is recorded as “convert to Form 2”.

`O=C(c1cccc(-c2nc3ccccc3[nH]2)n1)N1CCN(C(=O)c2cccc(-c3nc4ccccc4[nH]3)n2)CC1` [piperazine-1,4-diylbis((6-(1H-benzo[d]imidazo-2-yl)pyridine-2-yl)methanone)]: the “CD25/STAT5 signaling and late-stage glycolysis” value in data set [5] was “induces changes”. Besides, in data set [6], the fecal calprotectin levels entry is recorded as “reduces” and the “local TNFα production in the gastrointestinal tract” value was “reduces”. The “systemic absorption when orally administered” value in data set [7] is reported as “poorly systemically absorbed”. In data set [8], the “CD25/STAT5 signaling and late-stage glycolysis” value is given as “induces changes”.
